Source: patent US7820629B2, “Galactose derivative, drug carrier and medicinal composition” (Nippon Shinyaku Co., Ltd., priority 2006, dated 2010)

Tested on: HuH-7 cells (human hepatoma cell line)
Experiment: Evaluation of liver-targeting: uptake of tritium-labeled siRNA composition
Format: cell-based
Settings: carriers of Examples 2 to 6 or Comparative Example 1 with tritium-labeled siRNA 100 nM, eight hours, by content (mg) of the Example 1 derivative
Description: (1) Preparation of a Nucleic Acid Solution
A nucleic acid solution containing a tritium-labeled siRNA composed of an oligo RNA having a sequence of SEQ ID NO 1 and an oligo RNA having a sequence of SEQ ID NO 2 was prepared by introducing tritium-labeled [2,5′,8-3H]adenosine 5′-triphosphate ammonium salt (manufactured by Amersham Bioscience), using in-vitro Transcription T7 Kit (manufactured by Takara Bio). The siRNA concentration in the nucleic acid solution was 20 μM. The specific activity was 6.4×10^5 dpm/μg.
341.25 μL of a nucleic acid solution containing 20 μM of a tritium-unlabeled siRNA composed of an oligo RNA having a sequence of SEQ ID NO 1 and an oligo RNA having a sequence of SEQ ID NO 2 was added to 8.75 μL of the nucleic acid solution prepared in the above step, thereby preparing a nucleic acid solution having a specific activity of 1.6×10^4 dpm/μg.
(2) Preparation of a Composition […]
HuH-7 cells (human hepatoma cell line) were seeded on a 6-well plate at 2.5×10^5 cells/well, and were incubated for 18 hours at 37° C. under 5% CO2. […] 4 mL of a liquid scintillation cocktail (Emulsifier Scintillator Plus, manufactured by Perkin Elmer) was added to each of the vials and mixed well, and the radioactivity was counted with a liquid scintillation counter (manufactured by Perkin Elmer).

Substance: N-[1-(D)-deoxylactito-1-yl]oleamide [Example 1]
- liver-targeting potency (radioactivity of cells, FIG. 1): increases depending on the content
